# Laboratory results taken from patent US9834550B2, “Pyridopyrimidinone compounds for modulating the catalytic activity of histone lysine demethylases (KDMs)” (Dong-A Socio Holdings Co., Ltd., priority 2014, dated 2017).
# Biological target: T1, Recombinant human JARID1B/KDM5B (Homo sapiens, UniProt Q9UGL1)
# T1 construct: purchased Active Motif 31432; host or cells: Sf9 insect cells
# Test: LANCE Ultra TR-FRET demethylase assay with FLAG-tagged JARID1B
# Format: biochemical
# Settings: 100 nM compound; 500 nM biotinylated H3K4me3 peptide substrate
# From the text: FLAG-tagged JARID1B (also known as KDM5B) protein was screened against more than 170 compounds. For this compound screening, LANCE Ultra time-resolved fluorescence resonance energy transfer (TR-FRET) assay was employed using an europoium (Eu)-labeled antibody that can specifically recognize mono- or dimethylated peptides (H3K4me2/1) and ULight-streptavidin (ULight-SA), a small molecule fluorescent dye. When irradiated at 340 nm, the energy from the Eu donor is transferred to the ULight acceptor dye which, in turn, emits light primarily at 665 nm. The ratio between the intensity of primary emission at 665 nm and that of secondary emission at 590 nm was used to quantify the level of lysine methylation. As JARID1B removes more methyl moieties from tri-methylated substrate peptides (H3K4me3), the ratio increases until the enzyme reaction is terminated. In case, therefore, the compounds disrupt the enzymatic activity completely, the ratio becomes equal to a background value.
# Recombinant human JARID1B/KDM5B (accession number NP_006609) of molecular weight 179.9 KDa was expressed in Sf9 insect cells and contains an N-terminal FLAG tag. The enzyme was obtained from Active Motif (Catalog No. 31432). The tri-methylated histone substrate peptide of purity greater than 95% was a synthetic peptide in which the first 21 amino acids correspond to the human histone H3 sequence with three extra amino acids and a biotin motif (GGK-biotin) linked to the C-terminus [sequence: ART-K (Me3)-QTARKSTGGKAPRKQLA-GGK-biotin-OH], (AnaSpec, Fremont, Calif. Catalog. No. ANA-1413). The reference inhibitory compound tranylcypromine (or trans-2-phenylcyclopropylamine hydrochloride, also known as, 2-PCPA) was purchased from Sigma (St. Louis, Mo. Cat. no. P8511). ULight-labeled streptavidin (ULight-SA, Catalog no. TRF0102), Eu-W1024-labeled anti-methyl-Histone H3 Lysine 4 (H3K4me1-2) Antibody (Catalog no. TRF0402), and LANCE detection buffer 10× (Catalog no. CR97-100) were obtained from PerkinElmer (Montreal, Quebec, Canada). The TR-FRET experiments were carried out in white, low-volume 384-wellplates purchased from PerkinElmer (ProxiPlate-384 Plus, Catalog no. 6008280).
# The TR-FRET signal was measured in the presence both of the bio-H3K4me3 peptide and FLAG-JARID1B by detecting any H3K4me2/1 peptide produced in the assay system. Assays using only the bio-H3K4me2 peptide were served as a positive control. Robust enzymatic progressions were observed by using JARID1B at concentrations ranging from 10 to 30 nM. In a typical TR-FRET experiment, JARID1B was pre-incubated with or without 20 uM, 1 uM, or 0.1 uM of test-compounds (containing 1% DMSO final) for […]. The enzymatic reactions were initiated by the addition of 500 nM biotinylated H3K4me3 peptide substrate plus 500 uM of 2-OG, 25 uM Fe(II) and 2 mM ascorbate. The reaction buffer also contained 50 mM Hepes (pH7.5), 0.01% (v/v) Tween 20, and 50 mM NaCl. The reaction mixture was incubated for […] at room temperature before reading on an EnVision plate reader (PerkinElmer, Waltham, Mass.).
# T1 sequence (Q9UGL1 whole entry): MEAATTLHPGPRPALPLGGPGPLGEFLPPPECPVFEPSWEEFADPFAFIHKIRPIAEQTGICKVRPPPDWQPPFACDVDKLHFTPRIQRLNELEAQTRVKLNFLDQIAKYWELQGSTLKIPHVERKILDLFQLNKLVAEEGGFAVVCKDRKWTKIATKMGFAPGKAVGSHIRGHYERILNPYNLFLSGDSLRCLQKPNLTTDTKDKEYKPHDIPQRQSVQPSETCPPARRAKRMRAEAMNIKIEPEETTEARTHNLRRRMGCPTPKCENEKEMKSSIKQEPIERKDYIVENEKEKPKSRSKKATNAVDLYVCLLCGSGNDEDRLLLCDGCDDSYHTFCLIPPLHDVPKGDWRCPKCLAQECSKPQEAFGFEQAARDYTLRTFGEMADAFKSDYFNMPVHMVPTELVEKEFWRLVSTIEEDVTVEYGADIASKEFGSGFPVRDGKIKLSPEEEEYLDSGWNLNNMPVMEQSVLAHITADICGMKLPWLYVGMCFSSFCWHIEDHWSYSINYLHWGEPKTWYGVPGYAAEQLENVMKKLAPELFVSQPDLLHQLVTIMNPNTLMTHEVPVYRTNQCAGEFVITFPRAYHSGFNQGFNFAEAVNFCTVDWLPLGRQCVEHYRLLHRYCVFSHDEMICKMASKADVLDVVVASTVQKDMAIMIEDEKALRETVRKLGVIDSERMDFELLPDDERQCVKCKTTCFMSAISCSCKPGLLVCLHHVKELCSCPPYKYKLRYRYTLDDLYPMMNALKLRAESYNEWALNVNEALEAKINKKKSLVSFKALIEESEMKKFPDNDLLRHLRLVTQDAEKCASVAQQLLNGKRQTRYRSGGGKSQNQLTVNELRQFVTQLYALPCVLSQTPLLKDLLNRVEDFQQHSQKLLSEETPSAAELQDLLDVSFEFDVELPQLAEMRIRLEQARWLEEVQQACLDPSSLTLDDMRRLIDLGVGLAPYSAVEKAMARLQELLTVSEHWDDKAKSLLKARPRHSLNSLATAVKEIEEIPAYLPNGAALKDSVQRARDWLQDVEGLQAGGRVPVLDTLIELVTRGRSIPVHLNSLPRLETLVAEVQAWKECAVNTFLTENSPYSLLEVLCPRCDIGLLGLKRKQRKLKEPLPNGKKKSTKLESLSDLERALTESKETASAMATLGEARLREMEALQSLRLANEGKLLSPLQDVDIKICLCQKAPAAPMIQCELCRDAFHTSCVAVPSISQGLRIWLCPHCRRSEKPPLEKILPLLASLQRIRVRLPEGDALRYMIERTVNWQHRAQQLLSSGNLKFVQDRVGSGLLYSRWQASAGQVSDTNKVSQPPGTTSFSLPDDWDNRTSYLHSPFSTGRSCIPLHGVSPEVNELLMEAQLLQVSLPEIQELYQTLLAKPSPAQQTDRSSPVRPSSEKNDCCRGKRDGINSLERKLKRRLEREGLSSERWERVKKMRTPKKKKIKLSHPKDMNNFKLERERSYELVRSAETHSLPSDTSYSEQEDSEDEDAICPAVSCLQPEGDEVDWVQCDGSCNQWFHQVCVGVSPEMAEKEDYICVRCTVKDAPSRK
row,SMILES,inhibition at 0.1 µM
1,"O=c1[nH]c(COCc2ccccc2Cl)nc2c(CNCC3CCNCC3)nccc12 [Example 209, 2-(((2-chlorobenzyl)oxy)methyl)-8-(((piperidin-4-ylmethyl)amino)methyl)pyrido[3,4-d]pyrimidin-4(3H)-one]",> 50%
2,"O=c1[nH]c(COc2ccc(F)c(Cl)c2)nc2c(CNCC3CCN(C4CCCC4)CC3)nccc12 [Example 169, 2-((3-chloro-4-fluorophenoxy)methyl)-8-((((1-cyclopentylpiperidin-4-yl)methyl)amino)methyl)pyrido[3,4-d]pyrimidin-4(3H)-one]",> 50%
3,"O=c1[nH]c(COCc2ccccc2)nc2c(CNCC3CCNCC3)nccc12 [Example 202, 2-((benzyloxy)methyl)-8-(((piperidin-4-ylmethyl)amino)methyl)pyrido[3,4-d]pyrimidin-4(3H)-one]",20 to 50%
4,"O=c1[nH]c(COc2cc(C(F)(F)F)ccc2Cl)nc2c(CNCC3CCNCC3)nccc12 [Example 112, 2-((2-chloro-5-(trifluoromethyl)phenoxy)methyl)-8-(((piperidin-4-ylmethyl)amino)methyl)pyrido[3,4-d]pyrimidin-4(3H)-one]",20 to 50%
5,"O=c1[nH]c(COc2ccccc2Br)nc2c(CNCC3CCNCC3)nccc12 [Example 117, 2-((2-bromophenoxy)methyl)-8-(((piperidin-4-ylmethyl)amino)methyl)pyrido[3,4-d]pyrimidin-4(3H)-one]",20 to 50%
6,"O=c1[nH]c(COc2ccc(F)c(Cl)c2)nc2c(CNCc3cccnc3)nccc12 [Example 172, 2-((3-chloro-4-fluorophenoxy)methyl)-8-(((pyridin-3-ylmethyl)amino)methyl)pyrido[3,4-d]pyrimidin-4(3H)-one]",> 50%
7,"CN1CCC(CNCc2nccc3c(=O)[nH]c(C4CCCO4)nc23)CC1 (centres unmarked) [Example 194, 8-((((1-methylpiperidin-4-yl)methyl)amino)methyl)-2-(tetrahydrofuran-2-yl)pyrido[3,4-d]pyrimidin-4(3H)-one]",< 20%
8,"O=C(CNCc1nccc2c(=O)[nH]c(COc3ccc(F)c(Cl)c3)nc12)N1CCC(N2CCOCC2)C1 (centres unmarked) [Example 235, 2-((3-chloro-4-fluorophenoxy)methyl)-8-(((2-(3-morpholinopyrrolidin-1-yl)-2-oxoethyl)amino)methyl)pyrido[3,4-d]pyrimidin-4(3H)-one]",20 to 50%
9,"O=c1[nH]c(C2CCCC2)nc2c(CNCC3CCNCC3)nccc12 [Example 191, 2-cyclopentyl-8-(((piperidin-4-ylmethyl)amino)methyl)pyrido[3,4-d]pyrimidin-4(3H)-one]",< 20%
10,"CCN(CCN(C)C)C(=O)CNCc1nccc2c(=O)[nH]c(COc3ccc(F)c(Cl)c3)nc12 [Example 221, 2-(((2-((3-chloro-4-fluorophenoxy)methyl)-4-oxo-3,4-dihydropyrido[3,4-d]pyrimidin-8-yl)methyl)amino)-N-(2-(dimethylamino)ethyl)-N-ethylacetamide]",> 50%
11,"O=C1c2cccnc2CN1CCCNCc1nccc2c(=O)[nH]c(COc3ccc(F)c(Cl)c3)nc12 [Example 185, 2-((3-chloro-4-fluorophenoxy)methyl)-8-(((3-(5-oxo-5,7-dihydro-6H-pyrrolo[3,4-b]pyridin-6-yl)propyl)amino)methyl)pyrido[3,4-d]pyrimidin-4(3H)-one]",20 to 50%
12,"O=c1[nH]c(COc2ccc(F)c(Cl)c2)nc2c(CNCc3ccncc3)nccc12 [Example 173, 2-((3-chloro-4-fluorophenoxy)methyl)-8-(((pyridin-4-ylmethyl)amino)methyl)pyrido[3,4-d]pyrimidin-4(3H)-one]",20 to 50%
13,"CC(Oc1ccc(Cc2ccccc2)cc1)c1nc2c(CNCC3CCN(C)C3)nccc2c(=O)[nH]1 (centres unmarked) [Example 214, 2-(1-(4-benzylphenoxy)ethyl)-8-((((1-methylpyrrolidin-3-yl)methyl)amino)methyl)pyrido[3,4-d]pyrimidin-4(3H)-one]",20 to 50%
14,"N#Cc1cccc(OCc2nc3c(CNCC4CCNCC4)nccc3c(=O)[nH]2)c1 [Example 138, 3-((4-oxo-8-(((piperidin-4-ylmethyl)amino)methyl)-3,4-dihydropyrido[3,4-d]pyrimidin-2-yl)methoxy)benzonitrile]",20 to 50%
15,"O=C(CNCc1nccc2c(=O)[nH]c(COc3ccc(F)c(Cl)c3)nc12)NC1CCN(Cc2ccccc2)C1 (centres unmarked) [Example 232, N-(1-benzylpyrrolidin-3-yl)-2-(((2-((3-chloro-4-fluorophenoxy)methyl)-4-oxo-3,4-dihydropyrido[3,4-d]pyrimidin-8-yl)methyl)amino)acetamide]",> 50%
16,"Cc1cnc(CNCc2nccc3c(=O)[nH]c(COc4ccc(F)c(Cl)c4)nc23)cn1 [Example 166, 2-((3-chloro-4-fluorophenoxy)methyl)-8-((((5-methylpyrazin-2-yl)methyl)amino)methyl)pyrido[3,4-d]pyrimidin-4(3H)-one]",20 to 50%
17,"O=c1[nH]c(COc2ccccc2)nc2c(CNCC3CCNCC3)nccc12 [Example 123, 2-(phenoxymethyl)-8-(((piperidin-4-ylmethyl)amino)methyl)pyrido[3,4-d]pyrimidin-4(3H)-one]",20 to 50%
18,"O=C(CNCc1nccc2c(=O)[nH]c(COc3ccc(F)c(Cl)c3)nc12)N[C@@H]1CCCNC1 [Example 230, (R)-2-(((2-((3-chloro-4-fluorophenoxy)methyl)-4-oxo-3,4-dihydropyrido[3,4-d]pyrimidin-8-yl)methyl)amino)-N-(piperidin-3-yl)acetamide]",> 50%
19,"O=c1[nH]c(COc2cccnc2)nc2c(CNCC3CCN(Cc4ccccc4)CC3)nccc12 [Example 109, 8-((((1-benzylpiperidin-4-yl)methyl)amino)methyl)-2-((pyridin-3-yloxy)methyl)pyrido[3,4-d]pyrimidin-4(3H)-one]",20 to 50%
20,"CN1CCC(CNCc2nccc3c(=O)[nH]c(C4CCc5ccccc5O4)nc23)CC1 (centres unmarked) [Example 200, 2-(chroman-2-yl)-8-((((1-methylpiperidin-4-yl)methyl)amino)methyl)pyrido[3,4-d]pyrimidin-4(3H)-one]",20 to 50%
21,"CN1CCN(C(=O)CNCc2nccc3c(=O)[nH]c(COc4ccc(F)c(Cl)c4)nc23)CC1 [Example 226, 2-((3-chloro-4-fluorophenoxy)methyl)-8-(((2-(4-methylpiperazin-1-yl)-2-oxoethyl)amino)methyl)pyrido[3,4-d]pyrimidin-4(3H)-one]",> 50%
22,"O=c1[nH]cnc2c(CNC[C@@H]3CCCNC3)nccc12 [Example 98, (R)-8-(((piperidin-3-ylmethyl)amino)methyl)pyrido[3,4-d]pyrimidin-4(3H)-one]",< 20%
23,"C[C@@H](Oc1ccc(Cc2ccccc2)cc1)c1nc2c(CNCC3CCNCC3)nccc2c(=O)[nH]1 [Example 215, (R)-2-(1-(4-benzylphenoxy)ethyl)-8-(((piperidin-4-ylmethyl)amino)methyl)pyrido[3,4-d]pyrimidin-4(3H)-one]",> 50%
24,"O=c1[nH]c(COc2cnc(Br)cn2)nc2c(CNCC3CCNCC3)nccc12 [Example 131, 2-(((5-bromopyrazin-2-yl)oxy)methyl)-8-(((piperidin-4-ylmethyl)amino)methyl)pyrido[3,4-d]pyrimidin-4(3H)-one]",20 to 50%
25,"O=C(CNCc1nccc2c(=O)[nH]c(COc3ccc(F)c(Cl)c3)nc12)N1CCCC1 [Example 223, 2-((3-chloro-4-fluorophenoxy)methyl)-8-(((2-oxo-2-(pyrrolidin-1-yl)ethyl)amino)methyl)pyrido[3,4-d]pyrimidin-4(3H)-one]",20 to 50%
26,"CN1CCC(CNC(=O)CNCc2nccc3c(=O)[nH]c(COc4ccc(F)c(Cl)c4)nc23)C1 (centres unmarked) [Example 227, 2-(((2-((3-chloro-4-fluorophenoxy)methyl)-4-oxo-3,4-dihydropyrido[3,4-d]pyrimidin-8-yl)methyl)amino)-N-((1-methylpyrrolidin-3-yl)methyl)acetamide]",20 to 50%
